Here are results for one compound from US9504697B2, “Progesterone treatment for improving sleep quality” (BESINS Healthcare Luxembourg SARL, priority 2011, dated 2016).

Experiment [1] relates to postmenopausal women. The experiment in a line: Polygraphic sleep recordings in randomized, double-blind, placebo-controlled study, prevention of sleep disturbances. It counts as in vivo, human. As to the method:
Eight postmenopausal women, aged 48-74 yr (mean 57.4 yr), were selected after a careful clinical and biological evaluation. Investigations were performed 2-17 years (mean: 8.0 years) after natural menopause (seven subjects) or bilateral ovariectomy (one subject). Mean age at menopause was 49.4 years (range: 41-57 yr). Three subjects had never received hormone replacement therapy, and five subjects had been off such treatment for 2-6 months (mean: 4.4 months) at the time of enrollment. Body weight was in the normal range for all (mean+/-SEM of body mass index 22.1+/-0.8 kg/m2). In all subjects, estradiol plasma levels were <10 ng/liter. FSH plasma levels averaged 90 IU/liter (range: 66-136 IU/liter). The protocol was designed as a randomized, double-blind, placebo-controlled study. Thereafter, all subjects participated in random order in two studies (referred to as placebo and progesterone), separated from each other by at least 1 month. The placebo study preceded the progesterone study in four subjects and followed the progesterone study in the other four volunteers. Each study included an initial 20 day ambulatory period. During this period, the subjects were asked to maintain regular sleep-wake cycles (bedtime 2300-0700 h in darkness) and meal schedules (0800 h, 1230 h, 1900 h). They took daily, at 2300 h, a capsule of either 300 mg of progesterone or placebo. At the end of the ambulatory period, they were admitted at about 1600 h to the sleep laboratory for 44 hours. During hospitalization, subjects were maintained in a seated/upright position in normal indoor light conditions (+/-300 lux), and no naps were allowed during the scheduled wake periods (0700-2300 h). Meals were served at 0800 h, 1230 h, and 1900 h. At 2300 h, they received their usual capsule of either 300 mg of progesterone or placebo. During both scheduled sleep periods (2300-0700 h), subjects were kept recumbent in total darkness and sleep was polygraphically recorded. On the morning after the first night, a sterile heparin-lock catheter was inserted intravenously in the forearm and blood samples were collected for 24 hours at 15-minute intervals. The iv line was kept permeable by a slow drip of heparinized saline. During the sleep period, the indwelling catheter was connected to plastic tubing extending to an adjacent room and blood samples were collected remotely, as previously described (Leproult et al., 2005, Clin. Endocrinol. 63: 298-304). The total amount of blood withdrawn was less than 300 ml for each inpatient study. The subjects were discharged at about 1200 h after the second night. Polygraphic sleep recordings were visually scored at 30 second intervals, using standardized criteria ([…] and Kales, 1968, Los Angeles: UCLA Brain Information Service/Brain Research Institute) by the same experienced scorer who was blind to the clinical condition of the subject. Sleep onset and morning awakening were defined as, respectively, the times of the first and last 30 second intervals scored II, III, IV, or rapid eye movement (REM). The sleep period was defined as the time interval separating sleep onset and final awakening. Total sleep time was defined as the sleep period minus the total duration of wake after sleep onset (WASO). Sleep latency was defined as the time interval from lights off until sleep onset. Sleep efficiency was calculated as the total sleep time, expressed as percentage of the time allocated to sleep. Slow-wave sleep (SWS) was defined as stages III+IV. A spectral analysis was performed on the central electroencephalogram lead (PRANA, PhiTools, Strasbourg, France) (Latta et al., 2005, Sleep 28: 1525-1534). Muscular, ocular, and movement artifacts were eliminated before spectral analysis. Delta activity was calculated as the absolute spectral power in the frequency band 0.5-4 Hz. Mean delta power was calculated per 30-sec epoch. Delta power in non-REM sleep quantifies slow-wave activity (SWA) (i.e., the intensity of SWS). […]

The test system of experiment [2] is postmenopausal women. Briefly: Hormone levels (GH, IGF-I, TSH, free T4) from 24 hour blood sampling in the placebo-controlled study. It counts as in vivo, human. As to the method: Each study included an initial 20 day ambulatory period. During this period, the subjects were asked to maintain regular sleep-wake cycles (bedtime 2300-0700 h in darkness) and meal schedules (0800 h, 1230 h, 1900 h). They took daily, at 2300 h, a capsule of either 300 mg of progesterone or placebo.
At the end of the ambulatory period, they were admitted at about 1600 h to the sleep laboratory for 44 hours. During hospitalization, subjects were maintained in a seated/upright position in normal indoor light conditions (+/−300 lux), and no naps were allowed during the scheduled wake periods (0700-2300 h). Meals were served at 0800 h, 1230 h, and 1900 h. At 2300 h, they received their usual capsule of either 300 mg of progesterone or placebo. During both scheduled sleep periods (2300-0700 h), subjects were kept recumbent in total darkness and sleep was polygraphically recorded.
On the morning after the first night, a sterile heparin-lock catheter was inserted intravenously in the forearm and blood samples were collected for 24 hours at 15-minute intervals. The iv line was kept permeable by a slow drip of heparinized saline. During the sleep period, the indwelling catheter was connected to plastic tubing extending to an adjacent room and blood samples were collected remotely, as previously described (Leproult et al., 2005, Clin. Endocrinol. 63: 298-304). The total amount of blood withdrawn was less than 300 ml for each inpatient study. The subjects were discharged at about 1200 h after the second night.
Nonparametric tests (Friedman test, Wilcoxon signed rank test, Spearman rank test) were used for statistical calculations (StatView SE+ software for Macintosh computers, Abacus Concepts Inc., Berkeley, Calif.). Detection of outliers was performed by the Grubbs test (Grubbs, 1969, Technometrics 11:1-21; Grubbs and Beck, 1972, Technometrics 14:847-854). All group values are expressed as the mean+/−SEM.
Levels of growth hormone (GH) and thyroid-stimulating hormone (TSH) also were assessed.

The subject of another experiment is men. The conditions noted are these: men orally administered 300 mg progesterone; cited from earlier work.
For the next experiment, the system named is post-menopausal women. Conditions: post-menopausal women administered 300 mg progesterone; cited from earlier work.
Setting [3] is: night 2 (with catheter), P=0.04.

For the compound `CC(=O)[C@H]1CC[C@H]2[C@@H]3CCC4=CC(=O)CC[C@]4(C)[C@H]3CC[C@]12C` [progesterone, pregn-4-ene-3,20-dione], the “sleep duration and architecture, placebo versus progesterone treatment” value with postmenopausal women [1] (night 1 (without catheter), 300 mg daily at 2300 h, after 20 day ambulatory period) is recorded as “no differences”. In the experiment on postmenopausal women [1] (night 2 (with catheter)), the “sleep latency, stage I, stage II, REM sleep, and REM latency, progesterone versus placebo” value is on record as “no differences”. Further, in the experiment with postmenopausal women [1] (setting [3]), the “sleep efficiency higher under progesterone compared with placebo” value is on record as 15%, the “total SWA higher under progesterone compared with placebo” value is on record as “more than 40%” and the “total sleep time higher under progesterone compared with placebo” value was 20%. Moreover, in the experiment with postmenopausal women [1] (night 2 (with catheter), P=0.05), the “mean WASO duration lower under progesterone compared with placebo” value is “more than 50%”. In the experiment with postmenopausal women [1] (night 2 (with catheter), all eight subjects, mean+/-SEM), this compound gave an SWS duration of 84 ± 10 min. For the same compound, the “SWS duration, outlier excluded” value with postmenopausal women [1] (night 2 (with catheter), outlier excluded from the analysis, mean+/-SEM, P=0.04 vs placebo) is 79 ± 10 min. The “other sleep variables, night 2 compared with night 1” value in the experiment on postmenopausal women [1] (under progesterone 300 mg daily, night 2 with iv catheter) is on record as “not significantly altered”. Moreover, in the experiment on postmenopausal women [1] (under progesterone 300 mg daily, night 2 with iv catheter, P=0.04), the “decrease in stage II, night 2 compared with night 1” value is reported as “about 20%”. Also, the “decrease in total sleep time, night 2 compared with night 1” value with postmenopausal women [1] (under progesterone 300 mg daily, night 2 with iv catheter, P=0.05) is “about 20%”. In addition, in the experiment on postmenopausal women [1] (under progesterone 300 mg daily, night 2 with iv catheter, P=0.07), the “decrease in sleep efficiency, night 2 compared with night 1” value is “about 20%”. In the experiment with postmenopausal women [2] (0700-2300 h, mean+/-SEM, similar under both conditions), the “GH secretion over the scheduled wake period” value was 239 ± 91 µg. In addition, the “slope of the linear regression of TSH values over the 2300-0100 period” value with postmenopausal women [2] (2300-0100 period, P=0.05) is on record as “significant negative slope”. The “TSH levels over the 2300-0700 period” value with postmenopausal women [2] (2300-0700 period, P=0.05 vs placebo) was 0.98+/−0.18 mU/l. Further, the “GH secretion over the scheduled sleep period” value in the experiment with postmenopausal women [2] (2300-0700 h, mean+/-SEM, P=0.05 vs placebo) came to 154 ± 44 µg. In addition, the “24 hour TSH levels” value with postmenopausal women [2] (24 hour, P=0.07 vs placebo) is listed as 0.91+/−0.13 mU/l. In the experiment with postmenopausal women [2] (24 hour, P=0.53 vs placebo), the “24 hour free T4 levels” value amounted to 10.3 ± 0.4 ng/L. Further, in the experiment with postmenopausal women [2] (measured on 2-3 morning plasma samples, P=0.09 vs placebo), the IGF-I levels is 103 ± 23 µg/L. Besides, the “effect on sleep pattern” value with men was “increase of stage N2 time and decrease of stage N3 time and of REM sleep”. Also, in the experiment with post-menopausal women, the “intermittent time spent awake and REM sleep in the first third of the night” value is “decrease of intermittent time spent awake and increase in REM sleep in the first third of the night”; the “total duration of REM, Stage 2 or SWS, absolute power spectra; baseline, placebo and progesterone” value is “no significant differences”.
